Our source for the IC50 values is US9458110B2, “Phenylpyrazole derivatives as potent ROCK1 and ROCK2 inhibitors” (BRISTOL-MYERS SQUIBB COMPANY, priority 2013, dated 2016).

Test [1] has as its target ROCK1 (Homo sapiens (Human), UniProt Q13464). The test is described as follows: ROCK assay (Caliper LABCHIP peptide phosphorylation), ROCK1.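 Note: Read-out is separation of phosphorylated from unphosphorylated peptide, with kinase activity inhibition computed at every concentration of a dose-response series.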 It counts as biochemical. The note with it: 5 μM ATP, 1.5 μM peptide substrate.
In test [2] the target is ROCK2 (Homo sapiens (Human), UniProt O75116). The test is described as follows: ROCK assay (Caliper LABCHIP peptide phosphorylation), ROCK2.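 Note: reaction stopped with EDTA, then phosphorylated and unphosphorylated peptide resolved by microfluidic electrophoresis, kinase inhibition computed at each compound concentration in dose-response series, DMSO under 2%.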 As to conditions: 5 μM ATP, 1.5 μM peptide substrate. It counts as biochemical.

Bounds are passed on as bounds.

Chain of ROCK2 (O75116 whole entry, species assumed): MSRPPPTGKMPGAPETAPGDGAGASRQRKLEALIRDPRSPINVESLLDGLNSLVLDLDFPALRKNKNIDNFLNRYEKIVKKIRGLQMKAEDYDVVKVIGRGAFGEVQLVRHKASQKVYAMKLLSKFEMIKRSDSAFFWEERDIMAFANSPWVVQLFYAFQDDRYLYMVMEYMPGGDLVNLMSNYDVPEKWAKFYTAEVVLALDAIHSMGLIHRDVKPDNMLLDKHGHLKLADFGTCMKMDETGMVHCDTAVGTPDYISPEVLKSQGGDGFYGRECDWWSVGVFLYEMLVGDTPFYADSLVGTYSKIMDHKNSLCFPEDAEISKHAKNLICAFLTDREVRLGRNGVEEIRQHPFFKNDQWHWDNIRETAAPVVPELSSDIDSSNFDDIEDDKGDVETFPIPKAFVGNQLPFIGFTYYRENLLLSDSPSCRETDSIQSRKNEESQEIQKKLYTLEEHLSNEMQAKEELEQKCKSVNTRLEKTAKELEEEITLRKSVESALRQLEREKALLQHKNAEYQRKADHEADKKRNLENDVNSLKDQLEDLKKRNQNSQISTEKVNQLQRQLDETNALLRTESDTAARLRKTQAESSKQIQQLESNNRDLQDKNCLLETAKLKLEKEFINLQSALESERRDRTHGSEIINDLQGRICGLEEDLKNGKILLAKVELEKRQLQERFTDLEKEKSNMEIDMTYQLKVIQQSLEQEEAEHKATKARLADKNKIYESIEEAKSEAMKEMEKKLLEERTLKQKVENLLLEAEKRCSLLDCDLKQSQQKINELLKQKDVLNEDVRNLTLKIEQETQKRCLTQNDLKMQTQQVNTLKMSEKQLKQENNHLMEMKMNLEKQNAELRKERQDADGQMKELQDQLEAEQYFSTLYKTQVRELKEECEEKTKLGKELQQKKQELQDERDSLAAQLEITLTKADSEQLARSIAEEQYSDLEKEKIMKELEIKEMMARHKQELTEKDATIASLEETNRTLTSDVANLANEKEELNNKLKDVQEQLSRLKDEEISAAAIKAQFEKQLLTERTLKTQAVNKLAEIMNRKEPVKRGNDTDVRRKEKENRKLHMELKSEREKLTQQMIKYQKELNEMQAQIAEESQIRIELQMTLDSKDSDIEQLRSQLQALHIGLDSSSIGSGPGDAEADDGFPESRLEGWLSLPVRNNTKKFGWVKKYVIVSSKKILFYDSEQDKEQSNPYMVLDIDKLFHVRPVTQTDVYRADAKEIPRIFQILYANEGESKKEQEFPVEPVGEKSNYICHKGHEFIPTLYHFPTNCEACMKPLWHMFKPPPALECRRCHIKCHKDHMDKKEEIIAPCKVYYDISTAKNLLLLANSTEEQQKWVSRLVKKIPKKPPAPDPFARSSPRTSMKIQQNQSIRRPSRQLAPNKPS
Chain of ROCK1 (Q13464 whole entry, species assumed): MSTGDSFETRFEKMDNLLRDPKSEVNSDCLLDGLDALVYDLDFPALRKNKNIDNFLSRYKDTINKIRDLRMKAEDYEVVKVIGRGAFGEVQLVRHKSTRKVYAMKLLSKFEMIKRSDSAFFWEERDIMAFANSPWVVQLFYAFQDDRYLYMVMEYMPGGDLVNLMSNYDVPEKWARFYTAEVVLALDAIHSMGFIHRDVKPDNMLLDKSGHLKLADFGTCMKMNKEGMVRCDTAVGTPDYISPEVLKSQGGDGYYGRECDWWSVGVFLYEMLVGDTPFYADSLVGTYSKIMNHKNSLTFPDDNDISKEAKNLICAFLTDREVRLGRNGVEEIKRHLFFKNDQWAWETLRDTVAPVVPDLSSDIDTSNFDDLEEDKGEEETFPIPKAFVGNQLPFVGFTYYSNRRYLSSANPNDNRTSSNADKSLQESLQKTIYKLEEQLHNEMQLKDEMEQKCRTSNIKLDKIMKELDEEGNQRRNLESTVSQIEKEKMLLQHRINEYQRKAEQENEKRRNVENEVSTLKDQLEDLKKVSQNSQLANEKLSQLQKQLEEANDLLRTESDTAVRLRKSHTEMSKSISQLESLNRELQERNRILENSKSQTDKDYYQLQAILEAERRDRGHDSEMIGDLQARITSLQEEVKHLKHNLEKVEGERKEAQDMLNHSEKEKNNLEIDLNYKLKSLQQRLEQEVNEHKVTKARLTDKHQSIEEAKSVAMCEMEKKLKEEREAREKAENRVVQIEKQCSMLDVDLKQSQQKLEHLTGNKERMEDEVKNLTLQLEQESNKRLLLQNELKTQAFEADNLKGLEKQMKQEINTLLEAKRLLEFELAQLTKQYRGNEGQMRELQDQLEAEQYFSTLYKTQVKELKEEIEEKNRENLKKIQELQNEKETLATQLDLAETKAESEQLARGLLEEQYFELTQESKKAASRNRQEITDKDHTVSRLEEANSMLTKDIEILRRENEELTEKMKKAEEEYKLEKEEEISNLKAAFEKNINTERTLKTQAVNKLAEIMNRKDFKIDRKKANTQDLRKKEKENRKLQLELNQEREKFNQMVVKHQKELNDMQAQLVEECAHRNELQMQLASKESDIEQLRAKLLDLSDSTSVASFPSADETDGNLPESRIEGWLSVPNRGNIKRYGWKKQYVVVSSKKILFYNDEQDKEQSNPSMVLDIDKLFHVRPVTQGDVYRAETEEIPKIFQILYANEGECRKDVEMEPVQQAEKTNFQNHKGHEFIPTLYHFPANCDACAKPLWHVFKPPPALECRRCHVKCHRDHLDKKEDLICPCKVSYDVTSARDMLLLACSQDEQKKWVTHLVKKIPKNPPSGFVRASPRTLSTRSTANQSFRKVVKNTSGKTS

For `C[C@@H](NC(=O)c1cc(F)c(-c2cn[nH]c2)cc1F)c1ccccc1` [Example 186, 2,5-difluoro-N-[(1R)-1-phenylethyl]-4-(1H-pyrazol-4-yl)benzamide], the IC50 in test [1] is 472 nM; in test [2], 190 nM.
For the compound `COc1cc(C(=O)NC(Cc2ccccc2)C(C)=O)ccc1-c1cn[nH]c1` (centres unmarked) [Example 187, 3-methoxy-N-(3-oxo-1-phenylbutan-2-yl)-4-(1H-pyrazol-4-yl)benzamide], the figures for the IC50 in test [1] and in test [2] were 23 nM and 14 nM, respectively.
Regarding `C[C@@H](NC(=O)c1ccc(-c2cn[nH]c2)c(S(C)(=O)=O)c1)c1ccccc1` [Example 188, 3-methanesulfonyl-N-[(1R)-1-phenylethyl]-4-(1H-pyrazol-4-yl)benzamide], the IC50 in test [1] was more than 2000 nM; in test [2], 208 nM.
On to `COc1cc(-c2c[nH]nc2C(F)(F)F)ccc1C(=O)NCc1c(F)cccc1Cl` [Example 189, N-[(2-chloro-6-fluorophenyl)methyl]-2-methoxy-4-[3-(trifluoromethyl)-1H-pyrazol-4-yl]benzamide], for which the figures for the IC50 in test [1] and in test [2] were 39.4 nM and 42.5 nM, respectively.
On to `COc1cc(-c2cn[nH]c2)c(F)cc1C(=O)N[C@H](C)c1ccccc1` [Example 190, 5-fluoro-2-methoxy-N-[(1R)-1-phenylethyl]-4-(1H-pyrazol-4-yl)benzamide], for which the IC50 in test [1] was 37.1 nM; in test [2] it was 16.7 nM.
`CCOc1cc(C(=O)N[C@H](C)c2ccc(F)cc2)ccc1-c1cn[nH]c1` [Example 191, 3-ethoxy-N-[(1R)-1-(4-fluorophenyl)ethyl]-4-(1H-pyrazol-4-yl)benzamide]: the IC50 in test [1] worked out at 205 nM; in test [2], 74.6 nM.
Turning to `CCOc1cc(C(=O)N[C@H](CO)c2ccccc2)ccc1-c1cn[nH]c1` [Example 192, 3-ethoxy-N-[(1S)-2-hydroxy-1-phenylethyl]-4-(1H-pyrazol-4-yl)benzamide], the figures for the IC50 in test [1] and in test [2] were 50.8 nM and 11.4 nM, respectively.
On the same counts, the results for `C[C@@H](NC(=O)c1ccc(-c2cn[nH]c2)c(C#N)c1)c1ccc(F)cc1` [Example 193, 3-cyano-N-[(1R)-1-(4-fluorophenyl)ethyl]-4-(1H-pyrazol-4-yl)benzamide] are 873 nM and 289 nM.
On the same counts, the results for `N#Cc1cc(C(=O)N[C@H](CO)c2ccccc2)ccc1-c1cn[nH]c1` [Example 194, 3-cyano-N-[(1S)-2-hydroxy-1-phenylethyl]-4-(1H-pyrazol-4-yl)benzamide] are 510 nM and 152 nM.
Consider `CCOc1cc(C(=O)N[C@H](CO)c2c(F)cccc2F)ccc1-c1cn[nH]c1` [Example 195, N-[(1S)-1-(2,6-difluorophenyl)-2-hydroxyethyl]-3-ethoxy-4-(1H-pyrazol-4-yl)benzamide], for which the IC50 was 82.7 nM in test [1] and 16 nM in test [2].
Turning to `O=C(N[C@H](CO)c1c(F)cccc1F)c1ccc(-c2cn[nH]c2)c(OC(F)F)c1` [Example 196, 3-(difluoro-methoxy)-N-[(1S)-1-(2,6-difluorophenyl)-2-hydroxyethyl]-4-(1H-pyrazol-4-yl)benzamide], the figures for the IC50 in test [1] and in test [2] were 63.7 nM and 13.8 nM, respectively.
In the case of `Cc1cc(C(=O)N[C@H](CO)c2c(F)cccc2F)ccc1-c1cn[nH]c1` [Example 197, N-[(1S)-1-(2,6-difluorophenyl)-2-hydroxyethyl]-3-methyl-4-(1H-pyrazol-4-yl)benzamide], the IC50 in test [1] came to 52.6 nM; in test [2] it was 17.6 nM.
Consider `N#Cc1cc(C(=O)N[C@H](CO)c2c(F)cccc2F)ccc1-c1cn[nH]c1` [Example 198, 3-cyano-N-[(1S)-1-(2,6-difluorophenyl)-2-hydroxyethyl]-4-(1H-pyrazol-4-yl)benzamide], for which the IC50 in test [1] came to 397 nM; in test [2] it was 140 nM.
Regarding `COc1c(-c2cn[nH]c2)ccc(C(=O)N[C@H](CO)c2c(F)cccc2F)c1F` [Example 199, N-[(1S)-1-(2,6-difluorophenyl)-2-hydroxyethyl]-2-fluoro-3-methoxy-4-(1H-pyrazol-4-yl)benzamide], the IC50 in test [1] was 219 nM; in test [2], 21.6 nM.
As for `O=C(N[C@H](CO)c1c(F)cccc1F)c1ccc(-c2cn[nH]c2)c(Cl)c1` [Example 200, 3-chloro-N-[(1S)-1-(2,6-difluorophenyl)-2-hydroxyethyl]-4-(1H-pyrazol-4-yl)benzamide], the figures for the IC50 in test [1] and in test [2] were 42.3 nM and 12.3 nM, respectively.
Consider `COc1cc(-c2cn[nH]c2)ccc1C(=O)N[C@H](CO)c1c(F)cccc1F` [Example 201, N-[(1S)-1-(2,6-difluorophenyl)-2-hydroxyethyl]-2-methoxy-4-(1H-pyrazol-4-yl)benzamide], for which the IC50 in test [1] stood at 362 nM; in test [2], 11.5 nM.
With `O=C(N[C@H](CO)c1c(F)cccc1F)c1ccc(-c2cn[nH]c2)c(C(F)(F)F)c1` [Example 202, N-[(1S)-1-(2,6-difluorophenyl)-2-hydroxyethyl]-4-(1H-pyrazol-4-yl)-3-(trifluoromethyl) benzamide], the IC50 in test [1] amounted to 193 nM; in test [2] it was 55.7 nM.
Take `COc1ccc(F)c(C(C)NC(=O)c2ccc(-c3cn[nH]c3)cc2OC)c1` (centres unmarked) [Example 203, N-[1-(2-fluoro-5-methoxyphenyl)ethyl]-2-methoxy-4-(1H-pyrazol-4-yl)benzamide]: the figures for the IC50 in test [1] and in test [2] were 19.2 nM and 6.66 nM, respectively.
In the case of `COc1cc(-c2cn[nH]c2)ccc1C(=O)N[C@H](CO)Cc1ccccc1` [Example 204, N-[(2S)-1-hydroxy-3-phenylpropan-2-yl]-2-methoxy-4-(1H-pyrazol-4-yl)benzamide], the figures for the IC50 in test [1] and in test [2] were 9.8 nM and 15.2 nM, respectively.
Regarding `COc1cc(-c2cn[nH]c2)ccc1C(=O)NC(CO)c1ccccc1F` (centres unmarked) [Example 205, N-[1-(2-fluorophenyl)-2-hydroxyethyl]-2-methoxy-4-(1H-pyrazol-4-yl)benzamide], the IC50 in test [1] was found to be 345 nM; in test [2] it was 5.62 nM.
Take `COc1cc(-c2cn[nH]c2)ccc1C(=O)N[C@H](C)c1ccc(F)cc1` [Example 206, N-[(1R)-1-(4-fluorophenyl)ethyl]-2-methoxy-4-(1H-pyrazol-4-yl) benzamide]: the IC50 in test [1] came out at 7 nM; in test [2] it was 2.77 nM.
In the case of `COc1cc(-c2cn[nH]c2)ccc1C(=O)NCc1c(F)cccc1F` [Example 207, N-[(2,6-difluorophenyl)methyl]-2-methoxy-4-(1H-pyrazol-4-yl)benzamide], the results for the IC50 in test [1] and in test [2] were 4.25 nM and 4.39 nM, respectively.
As for `COc1cc(-c2cn[nH]c2)ccc1C(=O)NC(CCN(C)C)c1ccccc1` (centres unmarked) [Example 208, N-[3-(dimethylamino)-1-phenylpropyl]-2-methoxy-4-(1H-pyrazol-4-yl)benzamide], the IC50 in test [1] stood at 174 nM; in test [2], 15.2 nM.
In the same order, the values of `COc1cc(-c2cn[nH]c2)ccc1C(=O)N[C@H](CCO)c1ccccc1` [Example 209, N-[(1R)-3-hydroxy-1-phenylpropyl]-2-methoxy-4-(1H-pyrazol-4-yl)benzamide] are 6.55 nM and 2.78 nM.
`COc1cc(-c2cn[nH]c2)ccc1C(=O)NCc1ccc(F)cc1Cl` [Example 210, N-[(2-chloro-4-fluorophenyl)methyl]-2-methoxy-4-(1H-pyrazol-4-yl)benzamide]: the values for the IC50 in test [1] and in test [2] were 3.26 nM and 1.75 nM, respectively.

As a reminder, the IC50 is the concentration at which inhibition is half-maximal.
